Measured values reported in patent publication US20040034052A1, “Tricyclic derivatives of indole with antiangiogenic activity” (priority 2003, published 2004).
Where two headings read alike, the source gives them in different places.

Assays:
[1] = tested on: MCF-7 (human mammary carcinoma); experiment: Sulforodamine B antiproliferative test, sensitive MCF-7 cells; assay type: cell-based; details: MCF7, MCF-7 sensitive, 24 hours incubation, survival after another 48 hours, read-out: IC50 +/− SD, antiproliferative activity vs sensitive cell, MCF-7
Procedure: (§1) For the cytotoxic activity, proliferation screening tests were used, with different tumour lines, such as MCF-7 (human mammary carcinoma), LoVo (human colon carcinoma), MES-SA (human uterine sarcoma), or K-562 (human chronic myeloid leukaemia).
(§2) The test used was the sulforodamine B test used for screening anticancer products at the National Cancer Institute (Skehan, 1990). The molecules at scalar concentrations over a range from 500 μM to 0.97 μM, were incubated in parallel with different human cell lines for 24 hours. After removing the products, cell survival was investigated after another 48 hours with the NCI test. The antiproliferative capacity of the compounds was quantified in terms of IC50±SD (concentration of the molecule that inhibits 50% of cell survival) processed using a curve fitting program (De Lean et al., 1978).

[2] = tested on: LoVo (human colon carcinoma); experiment: Sulforodamine B antiproliferative test, sensitive LoVo cells; assay type: cell-based; details: 24 hours incubation, survival after another 48 hours, read-out: IC50 +/− SD, antiproliferative activity vs sensitive cell, LoVo
Procedure: as §1, §2

[3] = tested on: MCF-7 resistant cell (MCF-7/Dx, overexpressing P-glycoprotein, resistant to doxorubicin); experiment: Antiproliferative activity vs resistant cells, MCF-7; assay type: cell-based; details: Homo sapiens, MCF7; MCF-7 resistant (doxorubicin-resistant); read-out: IC50 +/− SD, antiproliferative activity vs resistent cell, MCF-7
Procedure: as §2
(§3) The cytotoxicity of the molecules on tumour lines resistant to chemosensitising activity was assessed on various tumour cell lines overexpressing P-glycoprotein and resistant to doxorubicin (100-fold) and cross-resistant to daunorubicin, actinomycin D, mitoxantrone, vincristine, vinblastine, taxol, colchicine, and etoposide. The cytotoxicity of the products was assessed using the same test adopted for the sensitive tumour cells.

[4] = tested on: LoVo resistant cell (LoVo/Dx, overexpressing P-glycoprotein, resistant to doxorubicin); experiment: Antiproliferative activity vs resistant cells, LoVo; assay type: cell-based; details: Homo sapiens, read-out: IC50 +/− SD, antiproliferative activity vs resistent cell, LoVo
Procedure: as §2, §3

[5] = Cytotoxicity on endothelial cells (BMEC); assay type: cell-based, bovine; details: bovine, BMEC (bovine medullary endothelial cell) cultures
[6] = tested on: BMEC (bovine medullary endothelial cell); experiment: Cytotoxicity on endothelial cells (BMEC); assay type: cell-based; details: BMEC
[7] = tested on: BMEC (bovine medullary endothelial cell); experiment: Chemotactic assay with the Boyden chamber on BMEC; assay type: cell-based; details: for % inhibition of migration at IC0/D.S.: BMEC, at IC0, chemotactic stimulus 1% bovine serum in DMEM
Procedure: For the antiangiogenic activity the chemotactic assay with the Boyden chamber was performed (Werner F., Goodwin R. H. and Leonard E. J., Journal of Immunological Methods 1980; 33, 239-247), using both bovine aortal endothelial cell (BAEC) cultures and bovine medullary endothelial cell (BMEC) cultures. The assays were performed at IC0 (maximum non-cytotoxic concentration) and the results expressed as % inhibition of migration across a porous filter in response to a chemotactic stimulus (1% bovine serum in DMEM culture medium). This finding was obtained by direct cell count under the optical microscope, and the percentage migration inhibition was calculated according to the formula (T−C/C)×100, where T=mean number of cells migrating in the sample and C=mean number of cells migrating in the control. The control consisted of cells which migrated towards the serum, not treated with the study molecules, and included in every chemotaxis experiment. The data refer to the readings of 5 microscopic fields/well in 4 independent chemotaxis wells per sample.

MCF-7 cells = experiment: Cell cycle and apoptosis analysis (propidium iodide, FACS) on MCF-7 cells; assay type: cell-based, human
Procedure: The cell cycle and apoptosis analysis on a tumour line was done by incubating the products for 24 hours at a concentration equal to approximately the IC50 Values with MCF-7 cells. The molecules were removed and the cell cycle and apoptosis were assessed at different times (0, 24, 48 hours). The cells were stained with propidium iodide and analysed with a cytofluorimeter (FACS) ([…] fluorescence activated cell sorter) by means of an argon ion laser set at 488 nm for the excitation. To assess the percentage of cells in the various stages of the cycle, linear DNA histograms were analysed with a cell fit program distributed by the equipment manufacturer. For the analysis of apoptosis, a region was inserted below the G0/G1 peak of the control population and the data were analysed with software supplied by the company (Lysis II-C32).

MCF-7/Dx line = experiment: Potentiation of doxorubicin cytotoxicity (MDR ratio), MCF-7/Dx; assay type: cell-based, human; details: compound at 11 μM
Procedure: as §3
(§4) Later, the products were assayed at a concentration lower than or equal to the one that inhibits 10% of cell survival. At this concentration, the molecules were tested in parallel in the absence and presence of doxorubicin. MDR ratios were calculated for the IC50 values in order to establish the degree of potentiation of the cytotoxic activity of doxorubicin induced by the product (MDR ratio) (De Lean et al. (1978) A. J. Physiol. 235, E97-102); (Skehan et al. (1990) J. Natl. Cancer Inst. 82, 1107-1112).

LoVo/Dx cell line = experiment: Potentiation of doxorubicin cytotoxicity (MDR ratio), LoVo/Dx; assay type: cell-based, human; details: compound at 11 μM
Procedure: as §3, §4

[8] = read-out: IC50 (μM), cytotoxicity on BMEC

IC50 [3] [µM]	IC50 [4] [µM]	melting point	Compound	IC50 [1] [µM]	IC50 [2] [µM]	IC50 [5, 8] [µM]	IC0 (μM) (maximum non-cytotoxic concentration) [6] [µM]	% inhibition of migration at IC0/D.S. [7]	further results
68.3	23.8	–	c1ccc2c(C3CCCCc4[nH]c5ccccc5c43)c[nH]c2c1 (racemic) [ST1621, 5-(indol-3-yl)-indo [2,3a]-cycloheptan.]	22.5	34.8	10	0.1	−43 +/− 4%	–
–	–	182 °C	c1ccc2c(C3CCCc4[nH]c5ccccc5c43)c[nH]c2c1 (racemic) [ST1729, 4-(1H-indol-3-yl)-tetrahydro-1H-carbazole]	35	50.5	80	25	−40 +/− 3%	–
39	–	–	Oc1ccc2[nH]cc(C3CCCCc4c3[nH]c3ccc(O)cc43)c2c1 (racemic) [ST1783, 1-(5″-hydroxy-1H-indol-3-yl)-5′-hydroxy-indo[2,3a]-cycloheptan.]	27	29	60	10	−46%	–
71	65.1	–	c1ccc(COc2ccc3[nH]cc(C4CCCCc5[nH]c6ccc(OCc7ccccc7)cc6c54)c3c2)cc1 (racemic) [ST1778, 5-(5″-benzyloxy-indol-3-yl)-5′-benzyloxy-indo[2,3a]-cycloheptan.]	28.5	54.5	50	25	−40 +/− 4%	–
–	–	207 °C	c1ccc2c(C3CCCc4c3[nH]c3ccccc43)c[nH]c2c1 (racemic) [ST1728, 1-(1H-indol-3-yl)-tetrahydro-1H-carbazole]	22	22.8	–	–	–	–
24.8	17	286 °C (dec.)	c1ccc(COc2ccc3[nH]cc(C4CCCCc5c4[nH]c4ccc(OCc6ccccc6)cc54)c3c2)cc1 (racemic) [ST1765, 1-(5″-benzyloxy-indol-3-yl)-5′-benzyloxy-indo[2,3a]-cycloheptan.]	11.5	10.5	–	–	–	–
28.4	25.2	–	c1ccc2c(C3CCCCc4c3[nH]c3ccccc43)c[nH]c2c1 (racemic) [ST1381, 1-(indol-3-yl)-indo [2,3a]-cycloheptan.]	28.5	22.5	–	30	−61.7%	increases and blocked in G0/G1 (% of the cell line) (MCF-7 cells; MCF-7, 30 μM, relative to control): 32%; G0/G1 (%) (MCF-7 cells; MCF-7, compound at 30 μM): 30 μM = 57.7%; G2 + M (%) (MCF-7 cells; MCF-7, compound at 30 μM): 30 μM = 10.1%; S(%) (MCF-7 cells; MCF-7, compound at 30 μM): 30 μM = 32.2%; Apoptosis 48 h (%) (MCF-7 cells; MCF-7, compound at 30 μM): 30 μM = 3.3%; IC50 ([5]; endothelial cell, read-out: cytotoxicity vs endotelial cell (IC)): > 100 µM; IC50 [6]: > 100 µM; chemotaxis of endothelial cells (in words) [7]: active for the chemotaxys; chemotaxis of endothelial cells (in words) ([7]; listed as ST 1381): the better anti-chemiotactic compound
21.1	21.7	204 to 206 °C (dec.)	CC1(C)OCC(C2c3c([nH]c4ccccc34)C(c3c[nH]c4ccccc34)C3OC(C)(C)OC32)O1 (racemic) [ST1372, 1-(indol-3-yl)-2,3-O-isopropylidene-4-(2,3-O-isopropylidene-ethyl)-tetrahydrocarbazole]	21.1	21.7	–	–	–	increases and blocks in G0/G1 (% of the cell) (MCF-7 cells; MCF-7, 20 μM, relative to control): 23%; increases and blocks in G0/G1 (% of the cell) (MCF-7 cells; MCF-7, 40 μM, relative to control): 32%; G0/G1 (%) (MCF-7 cells; MCF-7, compound at 20 μM): 20 μM = 54.4%; G2 + M (%) (MCF-7 cells; MCF-7, compound at 20 μM): 20 μM = 11.4%; S(%) (MCF-7 cells; MCF-7, compound at 20 μM): 20 μM = 34.2%; G0/G1 (%) (MCF-7 cells; MCF-7, compound at 40 μM): 40 μM = 57.8%; G2 + M (%) (MCF-7 cells; MCF-7, compound at 40 μM): 40 μM = 5.4%; S(%) (MCF-7 cells; MCF-7, compound at 40 μM): 40 μM = 36.8%; Apoptosis 48 h (%) (MCF-7 cells; MCF-7, compound at 40 μM): 40 μM = 16%; increase of the activity of Doxorubicin (MDR ratio) (MCF-7/Dx line): 3,5 times; increase of the activity of Doxorubicin (MDR ratio) (LoVo/Dx cell line): 3,5 times

Second part, the compound before the results:

Compound	IC50 [3] [µM]	IC50 [4] [µM]	melting point	IC50 [1] [µM]	IC50 [2] [µM]	IC50 [5, 8] [µM]	IC0 (μM) (maximum non-cytotoxic concentration) [6] [µM]	% inhibition of migration at IC0/D.S. [7]	further results
OCCCC(c1c[nH]c2cc3c(cc12)OCO3)c1c[nH]c2cc3c(cc12)OCO3 [ST1730, 4-hydroxy-1,1-di-(5′,6′-methylendioxy-indol-3-yl)-butane]	–	–	240 °C (dec.)	–	–	–	–	–	–
c1[nH]c2cc3c(cc2c1C1CCCCc2c1[nH]c1cc4c(cc21)OCO4)OCO3 (racemic) [ST1749, 1-(5″, 6″-methylendioxy-indol-3-yl)-5′,6′-methyleridioxy-indo [2,3-a]-cycloeptane]	–	–	184 °C (dec.)	–	–	> 200	100	−40 +/− 3%	–
c1[nH]c2cc3c(cc2c1C1CCCc2[nH]c4cc5c(cc4c21)OCO5)OCO3 (racemic) [ST1777, 4-(5′,6′-methylendioxy-1H-indol-3-yl)-6,7-methylendioxy-tetrahydro-1H-carbazole]	–	–	–	0.96	0.64	–	–	–	–
OCCCCC(c1c[nH]c2cc3c(cc12)OCO3)c1c[nH]c2cc3c(cc12)OCO3 [ST1422, 5-hydroxy-1,1-di-(5,6-methylendioxy-indol-3-yl)-pentane]	–	–	200 °C (dec.)	–	–	–	–	–	–
OCCCCC(c1cc2cc3c(cc2[nH]1)OCO3)c1c[nH]c2cc3c(cc12)OCO3 (racemic) [ST1423, (R,S)-5-hydroxy-1,1-di-(5′,6′-methylendioxy-indol-2-yl,5 ″,6″-methylendioxy-indol-3-yl)-pentane]	–	–	220 °C (dec.)	–	–	–	–	–	–
c1[nH]c2cc3c(cc2c1C1CCCc2c1[nH]c1cc4c(cc21)OCO4)OCO3 (racemic) [ST1751, 1-(5′,6′-methylendioxy-1H-indol-3-yl)-6,7-methylendioxy-tetrahydro-1H-carbazole]	58.6	–	200 °C (dec.)	–	–	–	–	–	–
